# Test system: SH13 H7N9 virus
# Parameters: species or system mice
# Conditions: mouse, in vivo
substance,measurement,value
poly IC,protection from lethal SH13 H7N9 challenge,did not provide any benefit over the vaccine alone
